Literature values as cited in patent US20220184159A1, “METHOD OF BOOSTING INNATE IMMUNITY” (UNIVERSITY OF THE SUNSHINE COAST, priority 2018, published 2022).

Experiments:
immune system of fish = conditions: carp, rainbow trout, turbot and Atlantic cod
[1] = administered in the feed, fish

For `CN(C)[C@@H]1C(O)=C(C(N)=O)C(=O)[C@@]2(O)C(O)=C3C(=O)c4c(O)cccc4[C@@](C)(O)[C@H]3[C@H](O)[C@@H]12` [Oxytetracycline], the “effect on the immune system of fish” value (immune system of fish) is given as “immunosuppressive effects” and the “ingested oxytetracycline excreted intact in the faeces” value [1] is given as 70-80%.
